Results: patent publication US9505780B2, “Thienopyranones as kinase and epigenetic inhibitors” (SignalRx Pharmaceuticals, Inc., priority 2014, dated 2016)

How the values were obtained:
[1] = test system: SKNBE (2) cells; experiment: Western blot of p-AKT and N-MYC in SKNBE(2) cells; assay type: cell-based, human; details: 24 hrs treatment, IGF stimulated
Procedure: Cells were stimulated with 50 ng/ml IGF for 30 min and used for lysate preparation. Proteins were quantitated by the BCA protein assay (Pierce). Equal amounts of protein were resolved by polyacrylamide gels, transferred to nitrocellulose membrane and probed by Western blot with the following primary antibodies: p-AKT(Ser473), API (Cell Signaling Technologies), N-MYC, CyclinD1 and β-actin (Santa Cruz Biotechnology).

[2] = target: BRD4 (Homo sapiens, UniProt O60885); experiment: BRD4 inhibition assay (region not distinguished); assay type: biochemical; details: for BRD4 inhibition: BRD4 regions 1 and 2
[3] = target: BRD4-1 (Homo sapiens (Human), UniProt O60885); experiment: BRD4 region 1 (BRD4-1) inhibition; assay type: biochemical
[4] = target: BRD4-2 (Homo sapiens (Human), UniProt O60885); experiment: BRD4 region 2 (BRD4-2) inhibition; assay type: biochemical
[5] = target: PI3Kβ (Homo sapiens (Human), UniProt P42338); experiment: PI3K beta isoform inhibition; assay type: biochemical
Sequence of PI3Kβ (P42338 whole entry, canonical isoform): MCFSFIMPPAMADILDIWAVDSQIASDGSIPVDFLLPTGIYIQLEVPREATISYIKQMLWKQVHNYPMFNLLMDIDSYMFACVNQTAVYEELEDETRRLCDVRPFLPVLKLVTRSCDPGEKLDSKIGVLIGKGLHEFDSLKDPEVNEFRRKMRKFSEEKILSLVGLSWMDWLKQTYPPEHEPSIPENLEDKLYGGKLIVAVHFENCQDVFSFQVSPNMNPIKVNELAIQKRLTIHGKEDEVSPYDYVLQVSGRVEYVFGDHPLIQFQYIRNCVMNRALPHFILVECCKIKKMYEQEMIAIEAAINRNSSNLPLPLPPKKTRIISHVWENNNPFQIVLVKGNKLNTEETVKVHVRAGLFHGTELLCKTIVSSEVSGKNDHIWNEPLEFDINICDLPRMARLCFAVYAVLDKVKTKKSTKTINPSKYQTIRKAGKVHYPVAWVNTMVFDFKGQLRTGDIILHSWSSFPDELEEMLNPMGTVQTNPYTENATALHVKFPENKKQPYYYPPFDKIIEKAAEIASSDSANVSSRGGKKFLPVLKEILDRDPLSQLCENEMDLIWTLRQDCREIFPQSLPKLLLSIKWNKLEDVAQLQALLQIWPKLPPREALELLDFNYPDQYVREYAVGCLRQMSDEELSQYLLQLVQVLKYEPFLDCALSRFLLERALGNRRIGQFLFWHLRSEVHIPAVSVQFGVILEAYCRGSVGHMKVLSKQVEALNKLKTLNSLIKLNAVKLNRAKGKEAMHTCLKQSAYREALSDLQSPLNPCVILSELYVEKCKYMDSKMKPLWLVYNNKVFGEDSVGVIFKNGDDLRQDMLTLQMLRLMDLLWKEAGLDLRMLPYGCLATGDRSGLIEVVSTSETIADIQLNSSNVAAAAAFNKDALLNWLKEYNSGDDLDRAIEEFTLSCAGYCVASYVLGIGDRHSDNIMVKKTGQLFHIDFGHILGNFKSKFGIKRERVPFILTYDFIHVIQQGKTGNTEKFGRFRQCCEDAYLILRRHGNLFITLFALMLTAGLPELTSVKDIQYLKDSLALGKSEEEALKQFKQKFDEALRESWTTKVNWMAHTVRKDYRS
Sequence of PI3Kβ (P27986 whole entry partner, canonical isoform): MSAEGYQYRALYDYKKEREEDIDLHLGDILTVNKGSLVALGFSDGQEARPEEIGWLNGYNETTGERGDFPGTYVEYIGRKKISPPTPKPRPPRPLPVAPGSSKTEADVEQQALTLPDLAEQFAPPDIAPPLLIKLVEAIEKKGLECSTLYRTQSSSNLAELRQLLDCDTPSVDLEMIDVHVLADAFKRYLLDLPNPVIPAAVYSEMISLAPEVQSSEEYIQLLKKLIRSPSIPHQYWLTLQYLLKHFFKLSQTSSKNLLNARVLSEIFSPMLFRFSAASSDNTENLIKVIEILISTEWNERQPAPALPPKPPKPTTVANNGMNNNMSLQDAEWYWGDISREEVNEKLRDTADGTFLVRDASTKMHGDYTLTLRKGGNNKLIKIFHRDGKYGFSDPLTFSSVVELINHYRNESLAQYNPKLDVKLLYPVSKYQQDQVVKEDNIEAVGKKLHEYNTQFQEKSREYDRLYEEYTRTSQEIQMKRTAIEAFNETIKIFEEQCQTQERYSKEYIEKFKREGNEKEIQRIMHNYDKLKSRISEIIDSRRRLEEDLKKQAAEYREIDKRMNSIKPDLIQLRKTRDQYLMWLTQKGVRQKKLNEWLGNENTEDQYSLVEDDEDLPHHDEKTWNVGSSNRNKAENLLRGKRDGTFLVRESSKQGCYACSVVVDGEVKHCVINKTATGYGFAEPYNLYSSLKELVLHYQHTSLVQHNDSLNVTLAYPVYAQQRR

[6] = target: PI3Kδ (Homo sapiens (Human), UniProt O00329); experiment: PI3K delta isoform inhibition; assay type: biochemical
Sequence of PI3Kδ (O00329 whole entry, canonical isoform): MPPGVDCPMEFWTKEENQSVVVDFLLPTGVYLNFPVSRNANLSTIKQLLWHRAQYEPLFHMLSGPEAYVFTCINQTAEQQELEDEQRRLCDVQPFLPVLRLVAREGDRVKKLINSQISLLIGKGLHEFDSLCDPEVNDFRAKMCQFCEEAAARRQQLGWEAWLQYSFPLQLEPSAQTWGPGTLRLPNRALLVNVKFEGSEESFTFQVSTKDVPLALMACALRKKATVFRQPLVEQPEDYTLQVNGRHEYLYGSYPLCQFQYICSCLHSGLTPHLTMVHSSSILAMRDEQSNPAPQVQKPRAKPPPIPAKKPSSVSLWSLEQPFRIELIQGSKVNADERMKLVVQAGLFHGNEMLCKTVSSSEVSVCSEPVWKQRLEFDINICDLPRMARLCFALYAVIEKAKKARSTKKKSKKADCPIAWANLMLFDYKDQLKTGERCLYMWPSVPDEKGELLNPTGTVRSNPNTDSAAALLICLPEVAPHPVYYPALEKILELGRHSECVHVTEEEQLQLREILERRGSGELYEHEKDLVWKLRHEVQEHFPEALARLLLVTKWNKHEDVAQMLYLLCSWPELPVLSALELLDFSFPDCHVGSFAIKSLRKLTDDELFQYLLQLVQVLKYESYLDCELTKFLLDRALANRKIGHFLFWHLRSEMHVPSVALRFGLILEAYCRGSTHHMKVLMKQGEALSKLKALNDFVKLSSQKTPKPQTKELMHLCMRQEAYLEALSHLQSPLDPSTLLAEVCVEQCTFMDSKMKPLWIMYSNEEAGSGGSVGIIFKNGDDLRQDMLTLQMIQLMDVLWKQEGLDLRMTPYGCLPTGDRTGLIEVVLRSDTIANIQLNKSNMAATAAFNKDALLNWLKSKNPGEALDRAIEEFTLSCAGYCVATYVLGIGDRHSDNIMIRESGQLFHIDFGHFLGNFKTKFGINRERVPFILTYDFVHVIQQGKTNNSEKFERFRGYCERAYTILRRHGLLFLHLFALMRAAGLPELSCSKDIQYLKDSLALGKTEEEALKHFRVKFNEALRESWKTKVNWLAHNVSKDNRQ
Sequence of PI3Kδ (P27986 whole entry partner, canonical isoform): as the sequence (P27986 whole entry partner, canonical isoform) above
From the text: Inhibitory activity can be determined routinely using known methods and also front commercial vendors offering this service for kinases and bromodomain proteins. […] In vivo, PI3K inhibition can be determined from target tissue biopsies by standard tissue processing to disrupt cells and then performing Western Blot analysis to determine the presence or absence of pAKT (substrate of PI3K) relative to a control sample. The activity of a compound of the invention as an inhibitor of a bromodomain-containing protein, such as a BET protein, such as BRD2, BRD3, BRD4, and/or BRDT, or an isoform or mutant thereof may be determined in vitro, in vivo, or in a cell line. In vitro assays include assays that determine inhibition of bromodomain-containing proteins. Alternatively, inhibitor binding may be determined by running a competition experiment where a provided compound is incubated with a bromodomain-containing protein, such as a BET protein bound to known ligands, labeled or unlabeled. For example, bromodomain inhibition can be determined in vitro using Alpha Screen Technology (http://www.reactionbiology.com/webapps/site/NewsPDFs/Bromodomain%20Assay%20Platform%20for%20Drug%/20Screening%20and%20Discovery.pdf). In vivo bromodomain inhibition can be determined indirectly by evaluating the amount of protect present of proteins whose genes' transcription is influenced or controlled by the bromodomain protein, for example, the MYCN protein transcription is controlled by BRD4 (J. E. Delmore et al., Cell 2011, 146, 904-917; A. Puissant, Cancer Discov. 2013, 3, 308-323). Bromodomain inhibition may also be predicted by in silico modeling as described below in the Examples.
Several TP Scaffold compounds (structures shown in FIG. 2 and Table 3) were tested for inhibition activity against isoforms of PI3K (alpha, beta, gamma, and delta isoforms) and the bromodomain protein BRD4 at regions 1 (BRD4-1) and 2 (BRD4-2).

[7] = target: PI3Kγ (Homo sapiens (Human), UniProt P48736); experiment: PI3K gamma isoform inhibition; assay type: biochemical
Sequence of PI3Kγ (P48736 whole entry, canonical isoform): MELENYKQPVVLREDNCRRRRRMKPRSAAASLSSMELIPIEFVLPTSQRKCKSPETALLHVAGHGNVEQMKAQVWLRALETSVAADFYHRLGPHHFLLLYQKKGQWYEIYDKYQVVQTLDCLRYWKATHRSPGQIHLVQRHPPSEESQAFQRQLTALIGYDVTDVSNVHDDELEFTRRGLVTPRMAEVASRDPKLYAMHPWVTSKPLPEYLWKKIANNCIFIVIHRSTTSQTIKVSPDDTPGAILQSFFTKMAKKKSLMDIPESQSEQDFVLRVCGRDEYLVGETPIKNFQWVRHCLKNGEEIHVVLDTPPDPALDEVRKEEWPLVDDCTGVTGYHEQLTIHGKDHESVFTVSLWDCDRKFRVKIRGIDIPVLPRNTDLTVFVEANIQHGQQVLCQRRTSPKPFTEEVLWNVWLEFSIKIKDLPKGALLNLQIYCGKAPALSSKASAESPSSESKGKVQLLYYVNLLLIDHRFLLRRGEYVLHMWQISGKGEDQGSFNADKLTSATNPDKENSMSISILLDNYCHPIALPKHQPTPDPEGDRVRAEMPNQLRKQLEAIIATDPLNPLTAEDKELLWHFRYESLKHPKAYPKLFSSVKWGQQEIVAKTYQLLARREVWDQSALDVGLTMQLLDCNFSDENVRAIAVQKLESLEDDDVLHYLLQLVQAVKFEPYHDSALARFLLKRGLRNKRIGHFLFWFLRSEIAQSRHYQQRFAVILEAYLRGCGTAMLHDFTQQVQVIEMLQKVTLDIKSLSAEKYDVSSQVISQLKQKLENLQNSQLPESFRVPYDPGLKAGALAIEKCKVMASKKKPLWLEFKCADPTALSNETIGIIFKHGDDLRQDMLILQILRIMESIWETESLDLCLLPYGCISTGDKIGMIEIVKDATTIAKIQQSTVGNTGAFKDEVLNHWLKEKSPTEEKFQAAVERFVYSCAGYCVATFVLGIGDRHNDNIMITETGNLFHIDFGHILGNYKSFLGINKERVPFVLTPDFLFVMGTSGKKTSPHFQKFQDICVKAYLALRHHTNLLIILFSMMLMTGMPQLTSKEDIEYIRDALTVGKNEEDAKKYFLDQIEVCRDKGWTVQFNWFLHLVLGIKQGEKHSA

[8] = target: PI3Kα (Homo sapiens (Human), UniProt P42336); experiment: PI3K alpha isoform inhibition; assay type: biochemical
Sequence of PI3Kα (P42336 whole entry, canonical isoform): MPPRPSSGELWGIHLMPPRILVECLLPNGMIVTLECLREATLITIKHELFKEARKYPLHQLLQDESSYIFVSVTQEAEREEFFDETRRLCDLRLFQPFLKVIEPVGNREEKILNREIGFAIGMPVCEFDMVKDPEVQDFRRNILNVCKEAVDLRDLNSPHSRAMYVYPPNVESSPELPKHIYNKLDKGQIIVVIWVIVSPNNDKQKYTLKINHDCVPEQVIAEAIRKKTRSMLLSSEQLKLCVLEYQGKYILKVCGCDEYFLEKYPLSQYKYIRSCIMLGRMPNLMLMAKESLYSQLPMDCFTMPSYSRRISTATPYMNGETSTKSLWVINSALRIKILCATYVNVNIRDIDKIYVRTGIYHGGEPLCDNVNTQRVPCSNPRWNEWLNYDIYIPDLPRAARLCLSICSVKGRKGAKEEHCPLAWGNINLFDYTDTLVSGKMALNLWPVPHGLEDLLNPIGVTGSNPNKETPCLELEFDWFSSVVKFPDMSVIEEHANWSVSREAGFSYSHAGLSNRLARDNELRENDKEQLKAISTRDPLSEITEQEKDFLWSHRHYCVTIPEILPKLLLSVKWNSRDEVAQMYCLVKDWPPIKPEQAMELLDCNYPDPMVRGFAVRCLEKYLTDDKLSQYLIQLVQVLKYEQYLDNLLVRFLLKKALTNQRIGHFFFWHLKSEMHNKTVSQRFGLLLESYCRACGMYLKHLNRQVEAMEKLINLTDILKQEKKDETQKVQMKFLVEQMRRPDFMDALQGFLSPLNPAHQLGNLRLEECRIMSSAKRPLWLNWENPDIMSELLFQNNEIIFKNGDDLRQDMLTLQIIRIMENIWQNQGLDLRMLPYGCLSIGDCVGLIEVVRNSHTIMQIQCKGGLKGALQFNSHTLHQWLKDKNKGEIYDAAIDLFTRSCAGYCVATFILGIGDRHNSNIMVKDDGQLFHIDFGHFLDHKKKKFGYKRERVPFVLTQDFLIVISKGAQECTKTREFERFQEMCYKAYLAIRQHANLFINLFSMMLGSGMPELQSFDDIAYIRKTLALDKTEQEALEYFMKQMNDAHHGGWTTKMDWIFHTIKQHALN
Sequence of PI3Kα (P27986 whole entry partner, canonical isoform): as the sequence (P27986 whole entry partner, canonical isoform) above

[9] = test system: HDAC; experiment: HDAC inhibitory activity, commercially available kit; assay type: biochemical; details: for HDAC inhibitory activity: 1, 10, 50 μM
[10] = test system: MYCN amplified SKNBE(2) cells; experiment: Brd4 chromatin precipitation, quantitative PCR of MYCN promoter region; assay type: cell-based, human; details: 24 hours exposure
Procedure: MYCN amplified SKNBE(2) cells were exposed to inhibitors for 24 hours then chromatin was precipitated with Brd4 (rabbit polyclonal antibody) along with rabbit IgG as a negative control (IgG). Precipitated chromatin was analyzed for the MYCN gene (2 sites within the MYCN promoter region) by quantitative PCR and enrichment is shown as the percentage of total input DNA (FIG. 4). The negative control region primers amplify within a gene desert region approximately 1 Mb away from MYCN (MYC-N NR). Error bars represent ±SEM of triplicate data. P<0.05 as compared to positive control (paired t-test). Positive control: No inhibitor; IP with BRD4 antibody, Negative Control: No inhibitor, IP with rabbit IgG.

[11] = test system: PI-3 kinases; details: cited from earlier work
[12] = test system: breast cancer stem cells; details: decreased from 11%; tumors with high HER2; cited from earlier work

Row | Compound | IC50 [3] | IC50 [4] | IC50 [6] | IC50 [7] | IC50 [8] | also measured
1 | Cn1c(=O)n(-c2ccc(C(C)(C)C#N)cc2)c2c3cc(-c4cnc5ccccc5c4)ccc3ncc21 [BEZ235] |  |  |  |  |  | pAKT, Western blot [1]: decreased pAKT
2 | Nc1cc(C(F)(F)F)c(-c2cc(N3CCOCC3)nc(N3CCOCC3)n2)cn1 [BKM120] |  |  |  |  |  | BRD4 inhibition [2]: no BRD4 inhibition; pAKT, Western blot [1]: decreased pAKT
3 | CC[C@H](Nc1ncnc2[nH]cnc12)c1nc2cccc(F)c2c(=O)n1-c1ccccc1 [CAL101] |  |  |  |  |  | IC50 [2]: > 50 µM; BRD4 inhibition [2]: no BRD4 inhibition; pAKT, Western blot [1]: decreased pAKT
4 | O=c1cc(N2CCOCC2)oc2c(-c3ccccc3)csc12 [Cmpd 6] | 2170 nM | 3450 nM | 784 nM | 1570 nM |  | IC50 [5]: 378 nM
5 | O=c1cc(N2CCOCC2)oc2ccsc12 [Cmpd 10] | > 50000 nM | > 50000 nM | > 50000 nM | > 50000 nM | 7160 nM | IC50 [5]: 9250 nM
6 | Nc1cccc(-c2csc3c(=O)cc(N4CCOCC4)oc23)c1 [Cmpd 11, 3-(3-Amino-phenyl)-5-morpholin-4-yl-thieno[3,2-b]pyran-7-one] | 843 nM | 1740 nM | 9810 nM | 6300 nM |  | 
7 | CCOC(=O)c1ccc(-c2csc3c(=O)cc(N4CCOCC4)oc23)cc1 [Cmpd 25] | 277 nM | 628 nM | 27 nM | 1170 nM |  | IC50 [5]: 1750 nM
8 | COC(=O)c1ccc(-c2csc3c(=O)cc(N4CCOCC4)oc23)cc1 [Cmpd 44, methyl 4-(5-morpholino-7-oxo-7H-thieno[3,2-b]pyran-3-yl)benzoate] | 811 nM | 1470 nM | 12 nM | 547 nM |  | IC50 [5]: 3600 nM; BRD4 inhibition [2]: showed activity; HDAC inhibitory activity [9]: No inhibitor activity
9 | O=C(O)c1ccc(-c2csc3c(=O)cc(N4CCOCC4)oc23)cc1 [Cmpd 100] | 1090 nM | 2760 nM | 295 nM | 259 nM | 55.2 nM | 
10 | O=C(NO)c1ccc(-c2csc3c(=O)cc(N4CCOCC4)oc23)cc1 [Cmpd 118] | 193 nM | 235 nM | 53 nM | 806 nM | 90 nM | HDAC activity inhibited versus control ([9]; 1 μM): 17%; HDAC activity inhibited versus control ([9]; 10 μM): 25%; HDAC activity inhibited versus control ([9]; 50 μM): 41%; HDAC inhibitory activity [9]: significant HDAC inhibitory activity
11 | O=C(Nc1ccc(-c2csc3c(=O)cc(N4CCOCC4)oc23)cc1)c1ccncc1 [Cmpd 120] | 326 nM | 393 nM | 21 nM | 556 nM | 95 nM | 
12 | O=C(Nc1ccc(-c2csc3c(=O)cc(N4CCOCC4)oc23)cc1)c1ccc(F)c(F)c1Nc1ccc(I)cc1F [Cmpd 121] | 255 nM | 2310 nM |  |  | < 10000 nM | 
13 | CC(C)(C)c1cc(NC(=O)Nc2cccc(-c3csc4c(=O)cc(N5CCOCC5)oc34)c2)no1 [Cmpd 122, 1-(5-tert-Butyl-isoxazol-3-yl)-3-[3-(5-morpholin-4-yl-7-oxo-7H-thieno[3,2-b]pyran-3-yl)-phenyl]-urea] | 2570 nM | 4880 nM | 1350 nM | 8650 nM | 950 nM | 
14 | O=C(Nc1cccc(-c2csc3c(=O)cc(N4CCOCC4)oc23)c1)Nc1ccc(Cl)c(C(F)(F)F)c1 [Cmpd 123, 1-(4-Chloro-3-trifluoromethyl-phenyl)-3-[3-(5-morpholin-4-yl-7-oxo-7H-thieno[3,2-b]pyran-3-yl)-phenyl]-urea] | > 50000 nM | > 50000 nM | 9750 nM | > 16700 nM | 7670 nM | 
15 | O=c1cc(N2CCSCC2)oc2c(-c3ccc4c(c3)OCCO4)csc12 [Cmpd 124, 3-(2,3-Dihydrobenzo[b][1,4]dioxan-6-yl)-5-thiomorpholino-7H-thieno[3,2-b]pyran-7-one] | 519 nM | 2800 nM | 480 nM | 4630 nM | 1580 nM | 
16 | O=c1cc(N2CCOCC2)oc2c(Br)csc12 [Cmpd 126, 3-Bromo-5-morpholin-4-yl-thieno[3,2-b]pyran-7-one] | > 50000 nM | > 50000 nM | 1480 nM | 2200 nM |  | 
17 | O=c1cc(N2CCSCC2)oc2c(Br)csc12 [Cmpd 127, 3-Bromo-5-thiomorpholino-7H-thieno[3,2-b]pyran-7-one] | 32600 nM | 34200 nM | 3300 nM | 9770 nM | 1720 nM | 
18 | O=c1cc(N2CCOCC2)oc2c(C#Cc3ccccc3)csc12 [Cmpd 128] | 4000 nM | 10700 nM |  |  |  | 
19 | O=c1cc(N2CCOCC2)oc2c(-c3ccn[nH]3)csc12 [Cmpd 129, 5-Morpholino-3-(2H-pyrazol-3-yl)-4-oxa-1-thia-7-Indenone] | 2230 nM | 9410 nM |  |  |  | 
20 | Cn1ncc2ccc(-c3csc4c(=O)cc(N5CCOCC5)oc34)cc21 [Cmpd 130, 3-(1-Methyl-1H-indazol-6-yl)-5-morpholino-4-oxa-1-thia-7-Indenone] | 349 nM | 695 nM |  |  |  | 
21 | Cc1n[nH]c2cc(-c3csc4c(=O)cc(N5CCOCC5)oc34)ccc12 [Cmpd 131, 3-(3-Methyl-1H-indazol-6-yl)-5-morpholino-4-oxa-1-thia-7-Indenone] | 231 nM | 446 nM |  |  |  | 
22 | CNC(=O)Nc1cccc(-c2csc3c(=O)cc(N4CCOCC4)oc23)c1 [Cmpd 133, 3-[m-(3-Methylureido)phenyl]-5-morpholino-4-oxa-1-thia-7-indenone] | 558 nM | 1120 nM |  |  |  | 
23 | CN(C)C(=O)Nc1cccc(-c2csc3c(=O)cc(N4CCOCC4)oc23)c1 [Cmpd 134, 3-[m-(3-Dimethylureido)phenyl]-5-morpholino-4-oxa-1-thia-7-indenone] | 662 nM | 1850 nM |  |  |  | 
24 | Cc1cccc(NC(=O)Nc2cccc(-c3csc4c(=O)cc(N5CCOCC5)oc34)c2)c1 [Cmpd 135, 5-Morpholino-3-{m-[3-(m-tolyl)ureido]phenyl}-4-oxa-1-thia-7-indenone] | 646 nM | 1270 nM |  |  |  | 
25 | O=C(Nc1cccc(-c2csc3c(=O)cc(N4CCOCC4)oc23)c1)Nc1cccc(C(F)(F)F)c1 [Cmpd 136] | 6150 nM | 1260 nM |  |  |  | 
26 | Cc1ccc(C)c(NC(=O)Nc2cccc(-c3csc4c(=O)cc(N5CCOCC5)oc34)c2)c1 [Cmpd 137, 5-Morpholino-3-{m-[3-(2,5-xylyl)ureido]phenyl}-4-oxa-1-thia-7-indenone] | 748 nM | 1260 nM |  |  |  | 
27 | O=c1cc(N2CCOCC2)oc2c(-c3ccccc3)cccc12 [LY294002, 2-(4-morpholinyl)-8-phenyl-4H-1-benzopyran-4-one] | 5330 nM | 13100 nM | 3220 nM |  |  | MYCN protein quantity, Western blot [1]: decreased; pAKT, Western blot [1]: decreased; MYCN expression (Brd4 ChIP, MYCN promoter) [10]: significantly repressed MYCN expression; IC50 [11]: 1400 nM
28 | O=c1cc(N2CCNCC2)oc2c(-c3ccccc3)cccc12 [LY303511] |  |  |  |  |  | MYCN protein quantity, Western blot [1]: inhibited only MYCN quantities; MYCN expression (Brd4 ChIP, MYCN promoter) [10]: significantly repressed MYCN expression
29 | CS(=O)(=O)CCNCc1ccc(-c2ccc3ncnc(Nc4ccc(OCc5cccc(F)c5)c(Cl)c4)c3c2)o1 [Lapatinib] |  |  |  |  |  | breast cancer stem cells, % of cells after treatment [12]: 5%
